Data taken from patent US11717508B2, “Compounds, compositions, and methods for inhibiting bacterial growth” (priority 2016, dated 2023).
Where “and” joins values, the source holds several entries; their conditions need not be identical. Equal entries are not always repeated. Where two headings read alike, the source gives them in different places.

Tested on: CDC1551(ΔdosR) mutant
Type: cell-based
Conditions: for Counts per million (CPM) / Counts per million (CPM) DosR_HC103A1 / Counts per million (CPM) DosR_HC103A2: DosR mutant treated with HC103A; for Counts per million (CPM): replicates 1, 2; for DosR DMSO/DosR HC103A Fold change / log2 Fold change: DosR mutant; for Counts per million (CPM) DosR_HC103A1: replicate 1; for Counts per million (CPM) DosR_HC103A2: replicate 2
[1] = gene MT0169 Rv0l60c PE, HC103A vs DMSO
[2] = gene MT0206 (Rv0196), HC103A compared to DMSO, upregulated
[3] = gene MT0207 (Rv0197), HC103A compared to DMSO, upregulated
[4] = gene MT0273 Rv0260c, HC103A vs DMSO
[5] = gene MT0585 (Rv0559c), HC103A compared to DMSO, upregulated
[6] = gene MT0586 (Rv0560c), HC103A compared to DMSO, upregulated
[7] = gene MT0587 (Rv0561c), HC103A compared to DMSO, upregulated
[8] = gene MT0808 (Rv0784), HC103A compared to DMSO, upregulated
[9] = gene MT0846 Rv0824c desA1, HC103A vs DMSO
[10] = gene MT0908 Rv0885, HC103A vs DMSO
[11] = gene MT0909 Rv0886 fprB, HC103A vs DMSO
[12] = gene MT1214 Rv1177 fdxC, HC103A vs DMSO
[13] = gene MT1297 (Rv1258c), HC103A compared to DMSO, upregulated
[14] = gene MT1430 Rv1386 PE, HC103A vs DMSO

SMILES: O=C(Nc1cccc(O)c1)c1cccc(NC(=O)c2cccs2)c1 [HC103A, N-[3-[(3 hydroxyphenyl)carbamoyl]phenyl]thiophene-2-carboxamide]
- downregulated genes in CDC1551(ΔdosR) mutant treated with compound (40 μM, 6 days, >2-fold, p<0.05): 13 genes
- Counts per million (CPM) (gene MT0169 Rv0l60c PE): 32.4 CPM and 38.89 CPM
- DosR DMSO/DosR HC103A Fold change [1]: 0.4759
- log2 Fold change [1]: −1.071
- Counts per million (CPM) DosR_HC103A1 (gene MT0206 (Rv0196)): 286.4 CPM
- Counts per million (CPM) DosR_HC103A2 (gene MT0206 (Rv0196)): 309 CPM
- DosR DMSO/DosR HC103A Fold change [2]: 6.59
- log2 Fold change [2]: 2.72
- Counts per million (CPM) DosR_HC103A1 (gene MT0207 (Rv0197)): 509.4 CPM
- Counts per million (CPM) DosR_HC103A2 (gene MT0207 (Rv0197)): 528.3 CPM
- DosR DMSO/DosR HC103A Fold change [3]: 4.134
- log2 Fold change [3]: 2.047
- Counts per million (CPM) (gene MT0273 Rv0260c): 19.06 CPM and 17.95 CPM
- DosR DMSO/DosR HC103A Fold change [4]: 0.4609
- log2 Fold change [4]: −1.117
- Counts per million (CPM) DosR_HC103A1 (gene MT0585 (Rv0559c)): 4,246.95 CPM
- Counts per million (CPM) DosR_HC103A2 (gene MT0585 (Rv0559c)): 5,318.58 CPM
- DosR DMSO/DosR HC103A Fold change [5]: 5.18
- log2 Fold change [5]: 2.373
- Counts per million (CPM) DosR_HC103A1 (gene MT0586 (Rv0560c)): 8,065.19 CPM
- DosR DMSO/DosR HC103A Fold change [6]: 384.9
- log2 Fold change [6]: 8.588
- Counts per million (CPM) DosR_HC103A1 (gene MT0587 (Rv0561c)): 66.91 CPM
- Counts per million (CPM) DosR_HC103A2 (gene MT0587 (Rv0561c)): 74.86 CPM
- DosR DMSO/DosR HC103A Fold change [7]: 2.044
- log2 Fold change [7]: 1.031
- Counts per million (CPM) DosR_HC103A1 (gene MT0808 (Rv0784)): 242.1 CPM
- Counts per million (CPM) DosR_HC103A2 (gene MT0808 (Rv0784)): 193.9 CPM
- DosR DMSO/DosR HC103A Fold change [8]: 2.445
- log2 Fold change [8]: 1.29
- Counts per million (CPM) (gene MT0846 Rv0824c desA1): 2,264.39 CPM and 5,375.06 CPM
- DosR DMSO/DosR HC103A Fold change [9]: 0.4703
- log2 Fold change [9]: −1.088
- Counts per million (CPM) (gene MT0908 Rv0885): 2,165.30 CPM and 1,401.92 CPM
- DosR DMSO/DosR HC103A Fold change [10]: 0.3709
- log2 Fold change [10]: −1.431
- Counts per million (CPM) (gene MT0909 Rv0886 fprB): 412.7 CPM and 231.2 CPM
- DosR DMSO/DosR HC103A Fold change [11]: 0.453
- log2 Fold change [11]: −1.142
- Counts per million (CPM) (gene MT1214 Rv1177 fdxC): 704.9 CPM and 1,378.70 CPM
- DosR DMSO/DosR HC103A Fold change [12]: 0.4926
- log2 Fold change [12]: −1.021
- Counts per million (CPM) DosR_HC103A1 (gene MT1297 (Rv1258c)): 106.4 CPM
- Counts per million (CPM) DosR_HC103A2 (gene MT1297 (Rv1258c)): 137 CPM
- DosR DMSO/DosR HC103A Fold change [13]: 2.269
- log2 Fold change [13]: 1.182
- Counts per million (CPM) (gene MT1430 Rv1386 PE): 63.3 CPM and 54.49 CPM
- DosR DMSO/DosR HC103A Fold change [14]: 0.4765
- log2 Fold change [14]: −1.069
